Several values for one entry are separate records, joined by “and”; a condition that tells them apart may be missing. Equal values may be shown once. Inconclusive results and toxic doses are left out. The calls were made as follows: active = survival T/C of 150% or more; inactive = T/C below 125% in these data. Peptide text beside a SMILES is read from it. * marks the point of attachment. Boc = CC(C)(C)OC(=O)*; OtBu = CC(C)(C)O*; NHNH2 = NN*
Test system: P388 leukemia ip, CD2F1 mice, survival T/C
Assay: NCI In Vivo Anticancer Drug Screen. Data for tumor model P388 Leukemia (intraperitoneal) in CD2F1 (CDF1) mice
Settings: endpoint: median survival time, higher = longer survival
Procedure, shortened: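 Mice carrying the transplanted tumor received test compound or vehicle. Survival was recorded in each group, and the value is the treated-group measurement divided by that of the vehicle-treated control group.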

[1] = dose: 50.0 mg/kg/injection, schedule: Q04DX003 (ip), vehicle: Klucel (hydroxypropylcellulose) (HPC)
[2] = dose: 50.0 mg/kg/injection, schedule: Q01DX005 (ip), vehicle: Klucel (hydroxypropylcellulose) (HPC)
[3] = dose: 100.0 mg/kg/injection, schedule: Q01DX005 (ip), vehicle: Klucel (hydroxypropylcellulose) (HPC)
[4] = dose: 60.0 mg/kg/injection, schedule: Q01DX005 (ip), vehicle: saline with Tween-80
[5] = dose: 120.0 mg/kg/injection, schedule: Q01DX005 (ip), vehicle: saline with Tween-80
[6] = dose: 240.0 mg/kg/injection, schedule: Q01DX005 (ip), vehicle: saline with Tween-80
[7] = dose: 50.0 mg/kg/injection, schedule: Q01DX009 (ip), vehicle: saline
[8] = dose: 100.0 mg/kg/injection, schedule: Q01DX009 (ip), vehicle: saline
[9] = dose: 12.5 mg/kg/injection, schedule: Q01DX001 (ip), vehicle: saline with Tween-80
[10] = dose: 25.0 mg/kg/injection, schedule: Q01DX001 (ip), vehicle: saline with Tween-80
[11] = dose: 50.0 mg/kg/injection, schedule: Q01DX005 (ip), vehicle: saline with Tween-80
[12] = dose: 100.0 mg/kg/injection, schedule: Q01DX005 (ip), vehicle: saline with Tween-80
[13] = dose: 12.5 mg/kg/injection, schedule: Q01DX009 (ip), vehicle: saline with Tween-80
[14] = dose: 50.0 mg/kg/injection, schedule: Q01DX009 (ip), vehicle: saline with Tween-80
[15] = dose: 200.0 mg/kg/injection, schedule: Q04DX003 (ip), vehicle: saline with Tween-80
[16] = dose: 100.0 mg/kg/injection, schedule: Q01DX009 (ip), vehicle: saline with Tween-80
[17] = dose: 200.0 mg/kg/injection, schedule: Q01DX005 (ip), vehicle: saline with Tween-80

Measured: T/C

c1ccc2c(NCCCCNc3c4ccccc4nc4ccccc34)c3ccccc3nc2c1
inactive: dose: 0.62 mg/kg/injection, schedule: Q## X009 (ip), vehicle: lactic acid 101 % of control | dose: 1.25 mg/kg/injection, schedule: Q## X009 (ip), vehicle: lactic acid 102 % of control | dose: 2.5 mg/kg/injection, schedule: Q## X009 (ip), vehicle: lactic acid 104 % of control | dose: 5.0 mg/kg/injection, schedule: Q## X009 (ip), vehicle: lactic acid 104 % of control | dose: 10.0 mg/kg/injection, schedule: Q## X009 (ip), vehicle: lactic acid 110 % of control

CNC1CCCc2c(O)cccc21 (configuration not stated)
inactive: [1] 99 % of control | dose: 100.0 mg/kg/injection, schedule: Q04DX003 (ip), vehicle: Klucel (hydroxypropylcellulose) (HPC) 101 % of control

O=S(=O)(C#Cc1ccccc1)C(F)(F)C(F)(F)C(F)(F)C(F)(F)F
inactive: dose: 100.0 mg/kg/injection, schedule: Q01DX001 (ip), vehicle: saline 116 % of control | dose: 200.0 mg/kg/injection, schedule: Q01DX001 (ip), vehicle: saline 115 % of control | dose: 400.0 mg/kg/injection, schedule: Q01DX001 (ip), vehicle: saline 102 % of control

O=C(O)c1cccc(SS(=O)(=O)c2cccc(C(=O)O)c2)c1
inactive: [2] 109 % of control | [3] 112 % of control | dose: 200.0 mg/kg/injection, schedule: Q01DX005 (ip), vehicle: Klucel (hydroxypropylcellulose) (HPC) 107 % of control

CCC1(CC)C(=O)C(CC)(CC)C1=O
inactive: [4] 104 % of control | [5] 110 % of control | [6] 110 % of control

CN1c2ccc(Br)c[c]2[Sn]2([c]3cc(Br)ccc31)[c]1cc(Br)ccc1N(C)c1ccc(Br)c[c]12
inactive: [4] 95 % of control | [5] 98 % of control | [6] 92 % of control

CC(C)=CC(=O)OCCN(C)C
inactive: [7] 109 % of control | [8] 93 % of control | dose: 200.0 mg/kg/injection, schedule: Q01DX009 (ip), vehicle: saline 93 % of control

Cc1c2nc(N)nc-2ccc2[nH]c(N)nc12
inactive: dose: 0.5 mg/kg/injection, schedule: Q01DX009 (ip), vehicle: Klucel (hydroxypropylcellulose) (HPC) 102 % of control | dose: 1.0 mg/kg/injection, schedule: Q01DX009 (ip), vehicle: Klucel (hydroxypropylcellulose) (HPC) 108 % of control | dose: 2.0 mg/kg/injection, schedule: Q01DX009 (ip), vehicle: Klucel (hydroxypropylcellulose) (HPC) 108 % of control | dose: 4.0 mg/kg/injection, schedule: Q01DX009 (ip), vehicle: Klucel (hydroxypropylcellulose) (HPC) 102 % of control

O=C(NC(Cc1ccccc1)C(=O)CBr)OCc1ccccc1 (configuration not stated)
inactive: [9] 100 % of control | [10] 104 % of control | dose: 50.0 mg/kg/injection, schedule: Q01DX001 (ip), vehicle: saline with Tween-80 109 % of control

CC1CCCCN1C (configuration not stated)
inactive: dose: 25.0 mg/kg/injection, schedule: Q01DX005 (ip), vehicle: saline with Tween-80 90 % of control | [11] 91 % of control | [12] 89 % of control

C[N+](C)(C)C
inactive: dose: 2.5 mg/kg/injection, schedule: Q01DX009 (ip), vehicle: saline 110 % of control | dose: 5.0 mg/kg/injection, schedule: Q01DX009 (ip), vehicle: saline 100 % of control | dose: 10.0 mg/kg/injection, schedule: Q01DX009 (ip), vehicle: saline 100 % of control

CC(C)C(NC(=O)CCl)C(=O)O (configuration not stated)
inactive: dose: 100.0 mg/kg/injection, schedule: Q01DX009 (ip), vehicle: Klucel (hydroxypropylcellulose) (HPC) 98 % of control | dose: 200.0 mg/kg/injection, schedule: Q01DX009 (ip), vehicle: Klucel (hydroxypropylcellulose) (HPC) 109 % of control

O=[N+]([O-])c1ccccc1O
inactive: [13] 109 % of control | dose: 25.0 mg/kg/injection, schedule: Q01DX009 (ip), vehicle: saline with Tween-80 113 % of control | [14] 109 % of control | dose: 100.0 mg/kg/injection, schedule: Q04DX003 (ip), vehicle: saline with Tween-80 105 % of control | [15] 110 % of control | dose: 400.0 mg/kg/injection, schedule: Q04DX003 (ip), vehicle: saline with Tween-80 105 % of control

C[c-]1[c-][c-][c-][c-]1.[C-]#[O+].[C-]#[O+].[C-]#[O+].[Mn]
inactive: dose: 12.5 mg/kg/injection, schedule: Q01DX005 (ip), vehicle: Klucel (hydroxypropylcellulose) (HPC) 94 % of control | dose: 25.0 mg/kg/injection, schedule: Q01DX005 (ip), vehicle: Klucel (hydroxypropylcellulose) (HPC) 95 % of control | [2] 99 % of control | [3] 99 % of control

CC(NC(=S)Nc1ccccc1)c1ccccc1 (configuration not stated)
inactive: dose: 25.0 mg/kg/injection, schedule: Q04DX002 (ip), vehicle: Klucel (hydroxypropylcellulose) (HPC) 100 % of control | dose: 50.0 mg/kg/injection, schedule: Q04DX002 (ip), vehicle: Klucel (hydroxypropylcellulose) (HPC) 100 % of control | dose: 100.0 mg/kg/injection, schedule: Q04DX002 (ip), vehicle: Klucel (hydroxypropylcellulose) (HPC) 96 % of control

CC(=O)Nc1ccc(C(=O)C=O)cc1
inactive: [16] 119 % of control

Cc1c(C)c2ccc3occc(=O)c3c2oc1=O
inactive: [11] 102 % of control | [12] 101 % of control | [17] 100 % of control

O=C1c2ccccc2C(=O)c2nc(CBr)c(CBr)nc21
inactive: dose: 5.0 mg/kg/injection, schedule: Q01DX005 (ip), vehicle: saline 100 % of control | dose: 10.0 mg/kg/injection, schedule: Q01DX005 (ip), vehicle: saline 100 % of control | dose: 20.0 mg/kg/injection, schedule: Q01DX005 (ip), vehicle: saline 97 % of control

O=C1CSC(c2ccccc2O)N1c1nncs1 (configuration not stated)
inactive: [11] 94 % of control | [12] 93 % of control | [17] 93 % of control

COC1=NO[C@@H]2C=CO[C@H]12
inactive: [11] 105 % of control | [12] 100 % of control | [17] 93 % of control

O=c1c2cc(O)ccc2sc2c(CO)ccc(NCCN3CCCC3)c12
inactive: dose: 19.25 mg/kg/injection, schedule: Q01DX005 (ip), vehicle: Klucel (hydroxypropylcellulose) (HPC) 101 % of control | dose: 38.5 mg/kg/injection, schedule: Q01DX005 (ip), vehicle: Klucel (hydroxypropylcellulose) (HPC) 100 % of control | dose: 77.0 mg/kg/injection, schedule: Q01DX005 (ip), vehicle: Klucel (hydroxypropylcellulose) (HPC) 106 % of control | dose: 154.0 mg/kg/injection, schedule: Q01DX005 (ip), vehicle: Klucel (hydroxypropylcellulose) (HPC) 109 % of control

C[n+]1cccc(NC(=O)c2ccccc2)c1
inactive: dose: 7.5 mg/kg/injection, schedule: Q01DX005 (ip), vehicle: saline with Tween-80 102 % of control | dose: 15.0 mg/kg/injection, schedule: Q01DX005 (ip), vehicle: saline with Tween-80 99 % of control | dose: 30.0 mg/kg/injection, schedule: Q01DX005 (ip), vehicle: saline with Tween-80 113 % of control

Nc1nc(N)c2nc(CNc3ccc(C(=O)NC(CC(=O)O)C(=O)O)cc3)cnc2n1 (configuration not stated)
inactive: [14] 95 % of control | dose: 66.0 mg/kg/injection, schedule: Q04DX003 (ip), vehicle: saline with Tween-80 112 % of control | [15] 90 % of control
active: [13] 150 % of control

O=C(NO)Nc1cc(Cl)cc(Cl)c1
inactive: [4] 114 % of control | [5] 114 % of control

CC(=O)OCC1OC(S[As](C2CCCCC2)C2CCCCC2)C(OC(C)=O)C(OC(C)=O)C1OC(C)=O (configuration not stated)
inactive: dose: 25.0 mg/kg/injection, schedule: Q04DX003 (ip), vehicle: Klucel (hydroxypropylcellulose) (HPC) 109 % of control | [1] 116 % of control

CCC(C)C(NC(=O)CNC(=O)OC(C)(C)C)C(=O)NC(C(=O)NC(CCC(=O)OC(C)(C)C)C(=O)NN)C(C)C (configuration not stated) (Boc-GIVE(OtBu)-NHNH2; configuration not given here)
inactive: dose: 6.25 mg/kg/injection, schedule: Q01DX001 (ip), vehicle: saline with Tween-80 100 % of control | [9] 100 % of control | [10] 95 % of control

N#Cc1cnn(-c2cc(Cl)ccc2Cl)c1N
inactive: [14] 99 % of control and 95 % of control and 98 % of control | [16] 101 % of control and 103 % of control and 92 % of control | dose: 200.0 mg/kg/injection, schedule: Q01DX009 (ip), vehicle: saline with Tween-80 104 % of control and 105 % of control and 123 % of control

CN(C)C(=O)NC1(N(C)C)CC1
inactive: dose: 25.0 mg/kg/injection, schedule: Q01DX009 (ip), vehicle: saline 104 % of control | [7] 100 % of control | [8] 97 % of control

— PubChem BioAssay AID330 (DTP/NCI, 2004)
